Measurements from patent US20230146782A1, “DEOXYCHOLIC ACID COMPOUNDS, PHARMACEUTICAL COMPOSITIONS AND USES THEREOF” (priority 2019, published 2023).
“And” between values parts separate entries of the source, which are not always exact repeats. Equal values may be shown once. Read-outs that look alike come from different tables or passages of the source.

What was measured:
[1] = biological target: T1, farnesoid X receptor (FXR) (Homo sapiens, UniProt Q96RI1); conditions: reference literature: sandwich-cultured human hepatocytes; cited from earlier work
T1 sequence (Q96RI1 1-486): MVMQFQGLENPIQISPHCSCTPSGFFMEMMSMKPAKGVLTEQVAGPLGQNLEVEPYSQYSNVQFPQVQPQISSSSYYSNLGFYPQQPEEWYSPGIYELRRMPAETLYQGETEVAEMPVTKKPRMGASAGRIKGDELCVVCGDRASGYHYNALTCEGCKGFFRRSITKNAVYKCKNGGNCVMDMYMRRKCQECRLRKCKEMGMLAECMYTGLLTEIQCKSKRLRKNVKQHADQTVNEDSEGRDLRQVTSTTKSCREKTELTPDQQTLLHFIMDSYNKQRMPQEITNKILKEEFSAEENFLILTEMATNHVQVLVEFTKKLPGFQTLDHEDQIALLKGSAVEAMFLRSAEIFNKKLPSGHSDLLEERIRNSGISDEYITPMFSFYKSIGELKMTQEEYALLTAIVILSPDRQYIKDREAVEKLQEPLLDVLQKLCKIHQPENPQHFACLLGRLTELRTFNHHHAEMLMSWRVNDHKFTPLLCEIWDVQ

in vivo = conditions: rat, po
Experimental: (§1) Formulation of preparation and dosing: An appropriate amount of the test sample was precisely weighed, and mixed with an appropriate volume of a solvent to obtain a clear solution or a homogeneous suspension. The preparation was administered to animals within 4 hours after formulation. The dosage formulation would be administered by oral gavage in accordance with facility standard operating procedures. The dosage volume would be determined by the body weights of the animals collected on the morning of administering.
(§2) Blood collection: Blood (approx. 0.2 ml per point in time) would be acupunctured each time from the jugular vein of every animal into a polypropylene tube. All blood samples would be transferred to pre-cooled commercial EDTA-K2 test tubes, and kept on wet ice until they were centrifuged.
(§3) Plasma processing: Blood samples would be centrifuged (3200 rpm, 10 min) at approximately 4° C. Plasma was collected separately and transferred to pre-labeled PP tubes in wet ice at each point in time, and then immediately precipitated by ACN (6 IS) (the ratio of plasma: ACN was 1:4). Centrifugation (10 min, 12,000 rpm) was carried out again to obtain a supernatant. The supernatant was quickly frozen on dry ice and kept at −70±10° C. before LC/MS/MS analysis.
(§4) Liver processing: Liver tissues were collected at each point in time, washed twice with pre-cooled deionized water, and dried with filter paper. Liver tissues were immediately homogenized with 10-times volume of a methanol-water solution (1:2, v/v). After homogenization, a portion of liver tissue homogenate (e.g., 200 uL of homogenate) was immediately measured and delivered to an analyst. After precipitated on wet ice, the samples were centrifuged, and a supernatant was collected and stored in a refrigerator at −70±10° C. before LC-MS/MS analysis. From the remaining liver homogenate, 800 uL of the homogenate was measured as a spare.

[2] = rat
Experimental: as §1, §2, §3, §4

[3] = Pharmacokinetic test: gavage to rats, active metabolites in plasma and liver by LC-MS/MS; conditions: for half-life: T1/2, rats; for half-life / Tlast: gavage of obeticholic acid
Experimental: as §1, §2, §3, §4

[4] = clinical treatment of liver diseases such as fatty liver; cited from earlier work
[5] = rat, plasma, po, 0.0576 mmol/kg

For CC[C@H]1[C@@H](O)[C@@H]2[C@H](CC[C@]3(C)[C@@H]([C@H](C)CCC(=O)NCC(=O)O)CC[C@@H]23)[C@@]2(C)CC[C@@H](O)C[C@@H]12 [Compound 4], the “Effect on activation of the farnesoid X receptor (FXR) activity, compared with obeticholic acid” value [1] is listed as “almost the same as the effect of the obeticholic acid”, the Kp (in vivo) is listed as 14.7 and the AUC(0-inf) (in vivo; 0.0576 mmol/kg) is listed as 7460 ng·h/mL. For the same molecule, the AUC(0-t) (in vivo; 0.0576 mmol/kg) was 7310 ng·h/mL, the Cmax (in vivo; 0.0576 mmol/kg) was 788 ng/mL and 16800 ng/g and the Tmax (in vivo; 0.0576 mmol/kg) was 4 h. For the same molecule, the MRT inf (in vivo; 0.0576 mmol/kg, MRT0-inf) was 6.1 h, the MRT last (in vivo; 0.0576 mmol/kg, MRT0-last) was 5.56 h and the half-life (in vivo; 0.0576 mmol/kg, T1/2) was 4.79 h. For the same molecule, the “In vivo active compounds in the rats after administration” value (shortened to “In vivo active compounds in the rats”) [2] was “Compound 4”, the Tlast ([2]; in vivo) was 24.0 h and the AUC0-last ([2]; in vivo, po) was 107187 ng·h/g. For the same molecule, the “AUC ratio of the obeticholic acid-glycine conjugate 4 in liver/plasma” value ([2]; in vivo, po) was 14.7, the AUC(0-inf) ([2]; in vivo, po) was 110040 ng·h/g and the “Total AUC in plasma and liver” value ([2]; in vivo, po) was 117503. For the same molecule, the “Total AUC of the Compound 4 in the liver and plasma” value ([2]; in vivo, po) was 117503 and the “AUC Ratio (liver/plasma)” value ([2]; in vivo, po, 0.0576 mmol/kg) was 42.3.

In the case of CC[C@@H]1C2C[C@H](O)CC[C@]2(C)[C@H]2CC[C@]3(C)[C@@H]([C@H](C)CCC(=O)NCC(=O)OC(C)C)CC[C@H]3[C@@H]2[C@@H]1O (some centres unmarked) [Compound I-4], the “In vivo active compounds in the rats” value [2] is reported as “Compound 4” and the “Total effective drug amount in the liver, compared with OCA” value ([2]; in vivo) is reported as “significantly increased”.

For CC[C@@H]1C2C[C@H](O)CC[C@]2(C)[C@H]2CC[C@]3(C)[C@@H]([C@H](C)CCC(=O)NCC(=O)OCc4ccccc4)CC[C@H]3[C@@H]2[C@@H]1O (some centres unmarked) [Compound I-5], the “In vivo active compounds in the rats” value [2] was “Compound 4”, the “Decrease of AUC of the effective drug in the blood versus direct administration of OCA” value ([2]; in vivo) was 84% and the “Increase of total AUC of Compound 4 in liver and plasma versus Compound 4 directly administered” value ([2]; in vivo) was 28%. For the same molecule, the “Total effective drug amount in the liver, compared with OCA” value ([2]; in vivo) was “significantly increased”, the “AUC ratio of the obeticholic acid-glycine conjugate 4 in liver/plasma” value ([2]; in vivo, po) was 18.7 and the “Total AUC of the Compound 4 in the liver and plasma” value ([2]; in vivo, po) was 150442.

In the case of CCOC(=O)[C@@H](N)Cc1ccc(OC(=O)CNC(=O)CC[C@@H](C)[C@H]2CC[C@H]3[C@@H]4[C@H](O)[C@H](CC)C5C[C@H](O)CC[C@]5(C)[C@H]4CC[C@]23C)cc1 (some centres unmarked) [Compound I-6], the “Total effective drug amount in the liver, compared with OCA” value ([3]; rats, gavage, same molar dosage as OCA) is reported as “significantly increased” and the “In vivo active compounds in the rats” value [2] is reported as “Compound 4”.

With CC[C@H]1[C@@H](O)[C@@H]2[C@H](CC[C@]3(C)[C@@H]([C@H](C)CCC(=O)O)CC[C@@H]23)[C@@]2(C)CC[C@@H](O)C[C@@H]12 [OCA, 6-α-ethylchenodeoxycholic acid] the Kp ([3]; rat, liver and plasma (AUC ratio), po, 0.0576 mmol/kg) was 0.663, the Cmax ([3]; rat, liver, po, 0.0576 mmol/kg) was 17900 ng/g and the Tmax ([3]; rat, liver, po, 0.0576 mmol/kg) was 0.5 h. The half-life ([3]; rat, liver, po, 0.0576 mmol/kg, OCA in liver) was 3.33 h, the AUC(0-inf) [3, 5] was 50300 ng·h/mL and the AUC(0-t) [3, 5] was 48100 ng·h/mL. For the same molecule, the Cmax [3, 5] was 24300 ng/mL, the Tmax [3, 5] was 0.5 h and the half-life ([3]; rat, plasma, po, 0.0576 mmol/kg, OCA in plasma) was 4.35 h. For the same molecule, the Tlast ([3]; rats, 0.0576 mmol/kg, OCA in liver) was 24.0 h, the Tlast ([3]; rats, 0.0576 mmol/kg, OCA in plasma) was 24.0 h and the Incidence of pruritus [4] was 63%. For the same molecule, the Incidence of rash [4] was “up to 32%”.

For CC[C@H]1[C@@H](O)[C@@H]2[C@H](CC[C@]3(C)[C@@H]([C@H](C)CCC(=O)NCCS(=O)(=O)O)CC[C@@H]23)[C@@]2(C)CC[C@@H](O)C[C@@H]12 [OCA-Tau, reference compound], the “Effect on activation of the farnesoid X receptor (FXR) activity, compared with obeticholic acid” value [1] is listed as “almost the same as the effect of the obeticholic acid”.
